From patent US11591297B2, “Compound having PD-L1 expression-suppressing action” (TOHOKU UNIVERSITY, priority 2019, dated 2023) come the findings set out here.

The structures appear in SMILES notation.

For this experiment, the system named is human PD-L1 promoter. Briefly: Inhibitory effect of luciferase expression under control of PD-L1 promoter (A549/PD-L1luc luciferase assay, corrected by total protein). The settings on record: Homo sapiens; A549/PD-L1luc cells, 48±4 hours, RLU corrected by total protein amount; read-out: IC50 (50% inhibition value of luciferase expression). Type of experiment: cell-based. An excerpt:
A reporter vector, pPD-L1luc obtained by the insertion of a human PD-L1 promoter sequence (−2097 to 51) into the multiple cloning site of pGL-3 vector basic (Promega) expresses luciferase under the control of PD-L1 promoter when transfected into animal cells. The pPD-L1luc was transfected into a human non-small cell lung cancer-derived cell line A549 together with pPUR (Clontech) that expresses a puromycin resistance gene (puromycin-N-acetyl-transferase gene), and then cells expressing luciferase which could grow in a puromycin-supplemented medium were selected. The selected cells were named “A549/PD-L1luc cells” and used for luciferase assay as described below.
A test compound was added into a culture liquid containing A549/PD-L1luc cells to observe the influence of the test compound on the amount of luciferase expressed in the cells. Here, it can be considered that when the test compound has a cell cytotoxicity or cell growth inhibitory effect, the total expression level of luciferase is recued due to a reduction in the number of living cells that depends on the concentration of the test compound, and thus the inhibitory effect of luciferase expression under the control of PD-L1 promoter of the test compound cannot be properly evaluated.
A549/PD-L1luc cells were suspended in DMEM containing 10% fetal calf serum (FCS) and 1% penicillin/streptomycin (P/S) (hereinafter, referred to as “DMEM medium”) at 3×10^4 cells/mL to obtain a cell suspension, and the cell suspension was dispensed into each well of a 96-well plate in an amount of 100 μL. In order to perform the assay in triplicate, 3 wells were prepared for control group, and 3 wells were prepared for test compound-treated groups at each concentration. After the dispensation, the 96-well plate was incubated in a CO2 incubator (at 37° C. and 5% CO2) for 24±4 hours.
Each compound of Examples 1 to 6 and Comparative Example 1 was dissolved in dimethylsulfoxide (DMSO) to obtain 50 mmol/L of a compound solution, and the compound solution was stored at −80° C. The compound solution was diluted with DMSO in 2-fold dilution series (usually, in the range of 0.04 mmol/L to 10 mmol/L) to prepare test compound solutions whose concentration varied by two fold for luciferase assay.
Each solution of only DMSO (control) and the diluted test compound (sample) was dispensed into each well containing the cell suspension in an amount of 0.5 μL (200-fold dilution). The solution in each well was mixed with a vortex mixer, and then the 96-well plate was incubated in a CO2 incubator (at 37° C. and 5% CO2) for 48±4 hours. Luciferase Assay Substrate (hereinafter, referred to as “LAS”) supplied in Luciferase Assay Systems (Promega: Cat #E1500) was dissolved in Luciferase Assay Buffer (LAB) to prepare a luciferase reagent. 5× Cell Culture Lysis Reagent (hereinafter, referred to as “CCLR”) was diluted by 5 times with water to prepare 1×CCLR.
After the incubation for 48±4 hours, the medium in each well was completely removed, and 1×CCLR was dispensed into each well in an amount of 50 μL. The plate was allowed to stand at room temperature for 30 minutes, and then 1×CCLR in each well was used as an assay sample for luciferase and total protein amount. The luciferase reagent (100 μL) was placed in a tube for chemiluminescence measurement assay, and the assay sample (20 μL) was added into the tube and mixed with the luciferase reagent to measure chemiluminescence (Relative Luminescence Intensity: RLU) using GloMax 20/20 (Promega).
The above-mentioned assay sample (10 μL) was diluted by 10 times with water (90 μL). Each calibration curve sample was prepared by diluting the BSA solution with water as described in Table 1.
BCA reagent A and BCA reagent B (50:1) supplied in a kit for protein assay were mixed to prepare Working Reagent. Each of the calibration curve samples (Vials I to VI) and the 10-fold diluted assay samples was dispensed into each well of a 96-well plate in an amount of 25 μL, respectively. […]
One may read the IC50 as the point on the concentration scale where inhibition reaches its midpoint. Turning to `COc1cc(C(=O)N2CCCC(C(=O)Nc3ccc(Oc4ccc(C(F)(F)F)cc4)cc3)C2)ccc1O` (stereo not shown) [Example 3, 1-(4-Hydroxy-3-methoxybenzoyl)-N-(4-(4-(trifluoromethyl)phenoxy)phenyl)piperidine-3-carboxamide], the IC50 is 0.61 µM. To `O=C(Nc1ccc(Oc2ccc(C(F)(F)F)cc2)cc1)C1CCCN(C(=O)c2ccc([N+](=O)[O-])cc2)C1` (stereo not shown) [Example 2, 1-(4-Nitrobenzoyl)-N-(4-(4-(trifluoromethyl)phenoxy)phenyl) piperidine-3-carboxamide] belongs 1.3 µM; to `COc1cc(C(=O)N2CCCC(C(=O)Nc3ccc(Oc4ccc(S(F)(F)(F)(F)F)cc4)cc3)C2)ccc1O` (stereo not shown) [Example 6, 1-(4-Hydroxy-3-methoxybenzoyl)-N-(4-(4-(pentafluorosulfanyl)phenoxy)phenyl)piperidine-3-carboxamide], 0.61 µM; to `O=C(Nc1ccc(Oc2ccc(S(F)(F)(F)(F)F)cc2)cc1)C1CCCN(C(=O)c2ccc([N+](=O)[O-])cc2)C1` (stereo not shown) [Example 5, 1-(4-Nitrobenzoyl)-N-(4-(4-(pentafluorosulfanyl)phenoxy)phenyl)piperidine-3-carboxamide], 0.62 µM.
